Results on 2 compounds are retold here after patent US11299490B2, “Benzenesulfonamide compounds and their use as therapeutic agents” (Xenon Pharmaceuticals Inc., priority 2016, dated 2022).

One data set deals with NaV1.1 (Homo sapiens (Human), UniProt P35498). Briefly: Sodium Influx Assay (Flux), NaV1.1. Format: cell-based. The following applies: Trex HEK293 cells, ANG2 dye; arithmetic mean. From the text: Sodium Influx Assay (In Vitro Assay)
Data set [1] concerns the target T1, NaV1.5 (Homo sapiens (Human), UniProt Q14524). Put plainly: cell-based.
Another data set addresses NaV1.6 (Homo sapiens (Human), UniProt Q9UQD0). Briefly: Sodium Influx Assay (Flux), NaV1.6.
Data set [2] has as its target T1, NaV1.5. Put plainly: Electrophysiological Assay (EP, patch voltage clamp), NaV1.5. Format: cell-based. The following applies: HEK-293 cells, whole-cell patch clamp, inactivated state; arithmetic mean. As to the method: Sodium currents were measured using the patch clamp technique in the whole-cell configuration using either a PatchXpress automated voltage clamp or manually using an Axopatch 200B (Axon Instruments) or Model 2400 (A-M systems) amplifier. […] In some studies, the external sodium was reduced by equimolar replacement with choline. […] All recordings were performed at ambient temperature in a bath chamber with a volume of 150 μL. Control sodium currents were measured in 0.5% DMSO. Controls and representative compounds of the invention were applied to the recording chamber through a 4-pinch or 8-pinch valve bath perfusion system manufactured by ALA Scientific Instruments.
Series resistance compensation was applied (60-80%). […] All statistics in this study are given as mean±SD.
The membrane potential was maintained at a voltage where inactivation of the channel is complete. The voltage is then stepped back to a very negative (Vhold=−150 mV) voltage for 20 ms and then a test pulse is applied to quantify the compound block. […] The percent decrease in sodium current following wash-on of compound was taken as the percent block of sodium channels.

T1 sequence (Q14524 other isoform, or with tags, fused parts or gaps): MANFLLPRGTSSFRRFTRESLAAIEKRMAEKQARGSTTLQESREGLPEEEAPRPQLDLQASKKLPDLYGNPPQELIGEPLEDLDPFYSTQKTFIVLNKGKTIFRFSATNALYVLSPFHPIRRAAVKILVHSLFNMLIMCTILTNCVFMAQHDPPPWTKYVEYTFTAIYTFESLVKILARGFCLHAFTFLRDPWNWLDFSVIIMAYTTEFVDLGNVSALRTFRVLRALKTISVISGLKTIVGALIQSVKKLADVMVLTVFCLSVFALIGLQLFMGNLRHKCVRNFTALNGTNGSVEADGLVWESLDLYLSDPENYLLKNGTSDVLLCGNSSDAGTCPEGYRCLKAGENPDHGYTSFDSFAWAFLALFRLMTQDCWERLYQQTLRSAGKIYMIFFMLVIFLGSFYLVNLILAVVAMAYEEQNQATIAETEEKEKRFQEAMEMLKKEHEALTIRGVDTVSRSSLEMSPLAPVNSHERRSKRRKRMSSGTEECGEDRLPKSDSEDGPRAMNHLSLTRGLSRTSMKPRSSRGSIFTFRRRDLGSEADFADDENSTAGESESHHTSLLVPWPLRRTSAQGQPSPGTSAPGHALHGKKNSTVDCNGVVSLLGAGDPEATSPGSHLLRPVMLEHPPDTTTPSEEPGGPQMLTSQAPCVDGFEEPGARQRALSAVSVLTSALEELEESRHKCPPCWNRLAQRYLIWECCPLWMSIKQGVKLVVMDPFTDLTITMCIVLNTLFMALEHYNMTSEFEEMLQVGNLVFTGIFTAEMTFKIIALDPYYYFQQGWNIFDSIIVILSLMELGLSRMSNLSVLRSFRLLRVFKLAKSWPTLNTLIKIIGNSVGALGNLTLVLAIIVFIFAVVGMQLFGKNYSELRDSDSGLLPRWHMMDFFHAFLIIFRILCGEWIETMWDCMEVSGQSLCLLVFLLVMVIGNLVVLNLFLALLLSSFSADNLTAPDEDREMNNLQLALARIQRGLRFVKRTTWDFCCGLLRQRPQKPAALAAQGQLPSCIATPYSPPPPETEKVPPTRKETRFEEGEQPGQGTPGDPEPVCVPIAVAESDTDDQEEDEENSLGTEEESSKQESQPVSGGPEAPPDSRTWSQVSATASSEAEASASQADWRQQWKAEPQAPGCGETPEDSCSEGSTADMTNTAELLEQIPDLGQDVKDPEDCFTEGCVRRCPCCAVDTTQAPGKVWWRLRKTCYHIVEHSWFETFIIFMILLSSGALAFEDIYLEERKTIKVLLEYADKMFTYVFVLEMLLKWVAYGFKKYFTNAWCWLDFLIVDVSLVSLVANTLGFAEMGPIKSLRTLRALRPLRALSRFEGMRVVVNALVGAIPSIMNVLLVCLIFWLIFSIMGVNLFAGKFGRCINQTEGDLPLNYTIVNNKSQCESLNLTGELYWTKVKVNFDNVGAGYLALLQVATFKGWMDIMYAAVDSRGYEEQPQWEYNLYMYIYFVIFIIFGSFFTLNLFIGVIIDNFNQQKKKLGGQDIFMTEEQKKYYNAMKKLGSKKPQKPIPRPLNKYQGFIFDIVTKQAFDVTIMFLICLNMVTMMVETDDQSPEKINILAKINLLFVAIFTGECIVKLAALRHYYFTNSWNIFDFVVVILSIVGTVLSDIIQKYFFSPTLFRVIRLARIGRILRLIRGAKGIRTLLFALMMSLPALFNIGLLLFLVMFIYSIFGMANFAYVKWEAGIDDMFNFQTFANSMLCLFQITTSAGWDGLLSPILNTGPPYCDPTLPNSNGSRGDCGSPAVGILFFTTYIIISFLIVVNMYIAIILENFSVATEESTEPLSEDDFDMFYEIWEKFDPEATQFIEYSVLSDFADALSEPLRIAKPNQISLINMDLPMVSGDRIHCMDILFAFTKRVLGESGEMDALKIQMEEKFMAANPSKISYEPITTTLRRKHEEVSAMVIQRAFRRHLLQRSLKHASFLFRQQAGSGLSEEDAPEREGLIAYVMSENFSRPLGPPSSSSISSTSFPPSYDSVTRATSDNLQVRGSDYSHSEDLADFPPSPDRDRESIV

Take `C[C@@H]1[C@H](N(C)c2cc(F)c(S(=O)(=O)Nc3cscn3)cc2Cl)CCN1Cc1ccccc1` (racemic) [Example 309, rac-4-(((2R,3R)-1-benzyl-2-methylpyrrolidin-3-yl)(methyl)amino)-5-chloro-2-fluoro-N-(thiazol-4-yl)benzenesulfonamide]: the IC50 at NaV1.1 amounted to 8.44 µM; against NaV1.5 [1] it was 7.35 µM; on NaV1.6 it was 6.86 µM.
On NaV1.5 [2], `Cc1c(N(C)[C@H]2CCN(Cc3ccccc3)C2)cc(F)c(S(=O)(=O)Nc2cscn2)c1F` [Example 103, (S)-4-((1-benzylpyrrolidin-3-yl)(methyl)amino)-2,6-difluoro-3-methyl-N-(thiazol-4-yl)benzenesulfonamide 2,2,2-trifluoroacetate] gave an IC50 greater than 30 µM.
